The values that follow come from EP2583662A1, “Composition comprising a meroterpen to manage oily skin with tendency to develop acne” (priority 2011, dated 2013).

Assay [1] relates to Propionibacterium acnes CIP A179. Kind of assay: Minimal inhibitory concentration (CMI) in solid medium against Propionibacterium acnes. Format: cell-based. To be noted: single active; Wilkins-Chalgren agar, 18h at 37°C, anaerobic.
Procedure: La détermination de la CMI des actifs à évaluer vis-à-vis de Propionibacterium acnes consiste, dans un premier temps, à préparer une gamme comportant neuf dilutions des actifs à tester. Chaque dilution est ensuite déposée en boîte de Pétri puis recouverte de gélose Wilkins-Chalgren. Après homogénéisation puis solidification, chacune des boîtes est inoculée avec une suspension calibrée (10^7 UFC/mL) de P acnes (dépôt par strie), puis les boîtes sont incubées 18h à 37°C en anaérobiose. La souche utilisée est le Propionibacterium acnes CIP A179 (origine = glande sébacée (1946), source CRBIP, Institut Pasteur, Paris).
La préparation des géloses s'effectue à J1 en ajoutant 2 mL d'eau osmosée stérile dans une boîte de Pétri (témoin négatif) ou 2 ml de chaque dilution des gammes d'actifs 10 fois concentré et 18 mL de milieu gélosé. Après solidification à température ambiante, les boites sont séchées 30 min à 37°C puis ensemencées avec la suspension bactérienne calibrée (10^7 UFC/mL) à l'aide d'une ose calibrée de 10 µL permettant de réaliser un dépôt correspondant à environ 10^4 UFC).
La lecture des boites est effectuée après 18 heures de culture à 37°C permettant de déterminer la CMI correspondant à la plus faible concentration d'actif(s) qui inhibe toute culture visible de P acnes. La présence de 1 à 3 colonies n'est pas prise en considération.
Les produits évalués sont le S (Sytenol®A, Sytheon), Z (Zinc gluconate, Azelis), seuls et les associations S + M (mannitol, IMCD/SPCI) + G (extrait glycolique de Ginkgo biloba, Greentech) et S + M + G + Z.
Le Sytenol®A qui présente un caractère lipophile est dilué dans le DMSO (solution mère à 10%) avant d'être redilué dans l'eau osmosée. Le zinc, le mannitol et l'extrait de Ginkgo sont directement dilués dans l'eau osmosée.
Les essais ont également compris des contrôles en présence du solvant DMSO ayant servi à la solubilisation de S dans l'eau.
A short description of assay [2]: Protection of squalene against H2O2-induced oxidation (GC-MS assay of remaining squalene). To be noted: for Indice de protection (%): squalene + H2O2 for 1 hour. The procedure:
Le but de l'étude est d'évaluer les effets d'un méroterpène, en l'occurrence le Sytenol®A, sur l'oxydation du squalène induite par du peroxyde d'hydrogène (H2O2).
Le squalène (Sigma, St Quentin Fallavier) est mis en contact avec une quantité définie de peroxyde d'hydrogène pendant 1 heure pour induire son oxydation, en présence ou non du Sytenol®A à 0.1%, 0.25% ou 0.5% (P/V). Un contrôle est réalisé avec un anti-oxydant lipophile de référence, la vitamine E, testée à 0,16% (3,8 mM), correspondant à une concentration équimolaire de Sytenol®A à 0,1%.
A l'issue de l'oxydation, une étape d'extraction est réalisée, puis les échantillons sont analysés par chromatographie en phase gazeuse couplée à une analyse par spectrométrie de masse (GC-MS). Le squalène est dosé grâce à une gamme étalon (10 µg/ml à 2500 µg/ml). La quantité de squalène oxydée est déduite des dosages du squalène. Plus les quantités de squalène dosées sont importantes, moins il a été oxydé et inversement.

`O=C(OOC(=O)c1ccccc1)c1ccccc1` [Peroxyde de Benzoyle, peroxyde de benzoyle] registered a CMI in assay [1] of 0.008%. On to Zinc gluconate, for which the CMI in assay [1] is listed as 0.12%.

For `C=C[C@@](C)(/C=C/c1ccc(O)cc1)CCC=C(C)C` [Sytenol®A, bakuchiol], in assay [2] (equimolar concentration of 3,8 mM), the “fois plus efficace que la vitamine E en termes de protection de l'oxydation du squalène” value turned out to be 2 fois. Besides, the “Indice de protection (%)” value in assay [2] (tested at 0.1% (3.9mM)) is recorded as 30.02%; in assay [2] (tested at 0.25% (9.75 mM)) it was 37.12%. vitamine E: the “Indice de protection (%)” value in assay [2] (tested at 0.16% (3.8mM)) was determined as 15.17%.
